Data set [1] deals with adrenergic tissues. Briefly: Accumulation in adrenergic tissues. It counts as in vivo. The conditions noted are these: localizes in adrenergic neurons of the heart and chromaffin granules of the adrenal medulla.
Data set [2] deals with adrenergic nerves of the heart. As to the kind of experiment: Selectivity for the adrenergic nerves of the heart. The conditions noted are these: in vivo.
Data set [3] in a line: Radio-decomposition on storage in buffer. It counts as physicochemical. The conditions noted are these: up to 14 days, pH 4.8 sodium acetate buffer (0.005M), 1% (v/v) benzyl alcohol, 4° C., dark.
Data set [4] can be described thus: Biological tissue distribution in dogs after intravenous injection. It counts as in vivo, dog (Female Mongrel). The conditions noted are these: i.v. 100 μCi. Here is the method: (§1) Biological tissue distribution studies were performed in rats, dogs, and monkeys injected intravenously with 25 μCi, 100 μCi and 100 μCi, respectively, of I-125 4-amino-3-iodobenzylguanidine in an average volume of 0.2 ml, 2 ml, and 1 ml, respectively. Representative samples of tissues were counted in an autogamma counter with corrections made for radioactive decay, background, and counter efficiency. To normalize for differences in animal weights, tissue concentrations are expressed as percent kilogram dose per gram.

Data set [5] in a line: Biological tissue distribution in monkeys after intravenous injection. The conditions noted are these: 3 hours, i.v. 100 μCi. The data set is classed as in vivo, monkey. How it is done:
as §1

A short description of data set [6]: Biological tissue distribution in rats after intravenous injection. It counts as in vivo, rat (Female Sprague-Dawley). The conditions noted are these: 90 min, i.v. 25 μCi. Here is the method: as §1

Regarding `N=C(N)NCc1ccc(N)c(I)c1` [4-amino-3-iodobenzylguanidine], the “accumulation in adrenergic tissues” value in data set [1] is “accumulated in adrenergic tissues in a manner similar to norepinephrine and guanethidine”.
Consider `N=C(N)NCc1ccc(N)c(I)c1` [radioiodinated compound, radioiodinated 4-amino-3-iodobenzylguanidine], for which the “selectivity for the adrenergic nerves of the heart” value in data set [2] was “high degree of selectivity for the adrenergic nerves of the heart”.
`N=C(N)NCc1ccc(N)c([131I])c1` [I-131-labeled compound, ^131 I-4-Amino-3-Iodobenzylguanidine] gave a degraded at 336 h in data set [3] below 4%.
For `N=C(N)NCc1ccc(N)c([125I])c1` [I-125 4-amino-3-iodobenzylguanidine], the tissue concentration (Mean + S.E.M.) in data set [4] (30 min, Adrenal Cortex) turned out to be 0.62 ± 0.16 % kg dose/g; in data set [4] (30 min, Adrenal Medulla), 8.8 ± 2.8 % kg dose/g; in data set [4] (30 min, Blood), 0.03 % kg dose/g; in data set [4] (30 min, Heart (Left Ventricle)), 0.49 ± 0.05 % kg dose/g; in data set [4] (30 min, Liver) it was 0.36 ± 0.02 % kg dose/g; in data set [4] (30 min, Lung) it was 0.88 ± 0.61 % kg dose/g. Further, the tissue concentration (Mean + S.E.M.) in data set [4] (30 min, Muscle) worked out at 0.05 ± 0.02 % kg dose/g; in data set [4] (30 min, Thyroid), 1.02 ± 0.06 % kg dose/g; in data set [4] (2 hours, Adrenal Cortex) it was 0.51 ± 0.15 % kg dose/g; in data set [4] (2 hours, Adrenal Medulla), 10.4 ± 0.8 % kg dose/g; in data set [4] (2 hours, Blood), 0.03 % kg dose/g; in data set [4] (2 hours, Heart (Left Ventricle)) it was 0.52 ± 0.02 % kg dose/g. The tissue concentration (Mean + S.E.M.) in data set [4] (2 hours, Liver) was determined as 0.2 ± 0.02 % kg dose/g; in data set [4] (2 hours, Lung) it was 1.26 ± 0.2 % kg dose/g; in data set [4] (2 hours, Muscle), 0.04 ± 0.01 % kg dose/g; in data set [4] (2 hours, Thyroid) it was 0.85 ± 0.11 % kg dose/g; in data set [4] (72 hours, Adrenal Cortex), 0.13 ± 0.06 % kg dose/g; in data set [4] (72 hours, Adrenal Medulla), 18.3 ± 1.8 % kg dose/g. Besides, the tissue concentration (Mean + S.E.M.) in data set [4] (72 hours, Blood) came out at 0.02 % kg dose/g; in data set [4] (72 hours, Heart (Left Ventricle)), 0.06 ± 0.01 % kg dose/g; in data set [4] (72 hours, Liver), 0.05 % kg dose/g; in data set [4] (72 hours, Lung), 0.09 ± 0.01 % kg dose/g; in data set [4] (72 hours, Muscle), 0.01 % kg dose/g; in data set [4] (72 hours, Thyroid), 14.6 ± 2.4 % kg dose/g. The “tissue concentration (Mean + S.E.M.)” value in data set [5] (Adrenal Cortex) was 0.60 ± .04 % Kg Dose/g; in data set [5] (Adrenal Modullae), 1.98 ± .14 % Kg Dose/g; in data set [5] (Blood) it was 0.03 ± .01 % Kg Dose/g; in data set [5] (Heart (Left Ventricle)), 0.85 ± .11 % Kg Dose/g; in data set [5] (Liver) it was 0.17 ± .04 % Kg Dose/g; in data set [5] (Lung) it was 0.99 ± .53 % Kg Dose/g. The “tissue concentration (Mean + S.E.M.)” value is 0.03 ± .55 % Kg Dose/g in data set [5] (Muscle); 1.07 ± .55 % Kg Dose/g in data set [5] (Thyroid); 0.08 ± .01 % Kg Dose/g in data set [6] (Blood); 0.55 ± .06 % Kg Dose/g in data set [6] (Left Atrium); 0.46 ± .05 % Kg Dose/g in data set [6] (Left Ventricle); 0.09 ± .01 % Kg Dose/g in data set [6] (Liver). Further, the “tissue concentration (Mean + S.E.M.)” value is 0.66 ± .05 % Kg Dose/g in data set [6] (Right Atrium), 0.70 ± .02 % Kg Dose/g in data set [6] (Right Ventricle) and 0.35 ± .01 % Kg Dose/g in data set [6] (Spleen).

For the origin of these results see US4622217A, “I-4-amino-3-iodobenzylguanidine as imaging and therapeutic agent” (The Regents of the University of Michigan, priority 1984, dated 1986).
